pIC50: −log10 of the molar value. Where no end group is shown, it is not given here.
Assays:
purified HLA DRB1 *0101 = purified HLA DRB1 *0101 (Homo sapiens, UniProt P01903+P01911, A100R/D57E/F55L/F60I/F76Y/I96L/L162R/M171V/P40L/Q125E/R42F/V115G/Y59C); assay: IC50nM to purified HLA | DRB1 *0101
Method: (§1) Table printed on a drawing sheet, FIG. 1
(§2) Head of the field: IC50nM to purified HLA | DRB1 *0101
(§3) First copying reader's note: The comma is the decimal sign and the point a thousands separator (e.g. 21.831); some values are printed bold or italic and some SEQ ID NOs underlined, with no legend on the sheet.
(§4) Where the first naming reader finds the target: head: IC50nM to purified HLA | DRB1 *0101

purified HLA DRB1 *0301 = purified HLA DRB1 *0301 (Homo sapiens, UniProt P01903+P01911, A100K/A102G/A103R/A169T/F55Y/I96L/K41T/L162R/M171V/P40S/Q125H/Q178H/Q39Y/R42S/S66N/T106N/T262R/W38E/Y61H); assay: IC50nM to purified HLA | DRB1 *0301
Sequence of purified HLA DRB1 *0301 (P01903 26-254 limits assumed, other chains not shown): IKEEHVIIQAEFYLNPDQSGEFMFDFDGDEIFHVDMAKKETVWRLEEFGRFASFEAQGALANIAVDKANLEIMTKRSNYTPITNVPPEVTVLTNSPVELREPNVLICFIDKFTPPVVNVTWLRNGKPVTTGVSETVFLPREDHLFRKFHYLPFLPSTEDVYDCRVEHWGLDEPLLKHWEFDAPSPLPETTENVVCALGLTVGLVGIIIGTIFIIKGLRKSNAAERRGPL
Method: as §1
(§5) Head of the field: IC50nM to purified HLA | DRB1 *0301
as §3
(§6) Where the first naming reader finds the target: head: IC50nM to purified HLA | DRB1 *0301

purified HLA DRB1 *0401 = purified HLA DRB1 *0401 (Homo sapiens, UniProt P01903+P01911, A100K/A169T/F76Y/I96L/K127E/L162R/M171V/N62H/P40V/Q125Y/R42H/S133A/S149N/S66Y/V115G/V209L/W38E); assay: IC50nM to purified HLA | DRB1 *0401
Method: as §1
Head of the field: IC50nM to purified HLA | DRB1 *0401
as §3
Where the first naming reader finds the target: head: IC50nM to purified HLA | DRB1 *0401

purified HLA DRB1 *0404 = purified HLA DRB1 *0404 (Homo sapiens, UniProt P01903+P01911, A100R/A169T/F76Y/I96L/K127E/L162R/M171V/N62H/P40V/Q125Y/R42H/S133A/S149N/S66Y/V209L/W38E); assay: IC50nM to purified HLA | DRB1 *0404
Method: as §1
(§7) Head of the field: IC50nM to purified HLA | DRB1 *0404
as §3
(§8) Where the first naming reader finds the target: head: IC50nM to purified HLA | DRB1 *0404

purified HLA DRB1 *0405 = purified HLA DRB1 *0405 (Homo sapiens, UniProt P01903+P01911, A100R/A169T/D86S/F76Y/I96L/K127E/L162R/M171V/N62H/P40V/Q125Y/R42H/S133A/S149N/S66Y/V115G/V209L/W38E); assay: IC50nM to purified HLA | DRB1 *0405
Method: as §1
Head of the field: IC50nM to purified HLA | DRB1 *0405
as §3
Where the first naming reader finds the target: head: IC50nM to purified HLA | DRB1 *0405

purified HLA DRB1 *0701 = purified HLA DRB1 *0701 (Homo sapiens, UniProt P01903+P01911, A100R/A102G/A103Q/D57E/D86V/E43K/F76Y/K127E/L162R/M171V/P40G/Q125H/Q99D/R33Q/R42Y/R54Q/S133A/S66F/T210M/V115G/Y107V/Y59L/Y89S); assay: IC50nM to purified HLA | DRB1 *0701
Method: as §1
(§9) Head of the field: IC50nM to purified HLA | DRB1 *0701
as §3
(§10) Where the first naming reader finds the target: head: IC50nM to purified HLA | DRB1 *0701

purified HLA DRB1 *0802 = purified HLA DRB1 *0802 (Homo sapiens, UniProt P01903+P01911, A100R/A103L/A169T/F76Y/H45Y/I96F/K41T/L162R/M171V/P40S/Q125H/Q178H/Q39Y/Q99D/R218S/R42G/S66Y/V115G/W38E); assay: IC50nM to purified HLA | DRB1 *0802
Method: as §1
(§11) Head of the field: IC50nM to purified HLA | DRB1 *0802
as §3
(§12) Where the first naming reader finds the target: head: IC50nM to purified HLA | DRB1 *0802

purified HLA DRB1 *0901 = purified HLA DRB1 *0901 (Homo sapiens, UniProt P01903+P01911, A100R/A103E/D57H/D86V/F55Y/F60I/F76Y/I96F/K127E/L162R/M171V/P40D/Q125H/Q99R/R33Q/R42F/S133A/S66N/T210M/V115G/W38K/Y107V/Y59G/Y89S); assay: IC50nM to purified HLA | DRB1 *0901
Method: as §1
Head of the field: IC50nM to purified HLA | DRB1 *0901
as §3
Where the first naming reader finds the target: head: IC50nM to purified HLA | DRB1 *0901

purified HLA DRB1 *1101 = purified HLA DRB1 *1101 (Homo sapiens, UniProt P01903+P01911, A100R/A169T/A87E/I96F/K41T/L162R/M171V/P40S/Q125H/Q178H/Q39Y/Q99D/R42S/S66Y/T262R/V115G/W38E); assay: IC50nM to purified HLA | DRB1 *1101
Sequence of purified HLA DRB1 *1101 (P01903 26-254 limits assumed, other chains not shown): as above
Method: as §1
Head of the field: IC50nM to purified HLA | DRB1 *1101
as §3
Where the first naming reader finds the target: head: IC50nM to purified HLA | DRB1 *1101

purified HLA DRB1 *1302 = purified HLA DRB1 *1302 (Homo sapiens, UniProt P01903+P01911, A100E/A169T/K41T/L162R/M171V/P40S/Q125H/Q178H/Q39Y/Q99D/R42S/S66N/T262R/V115G/W38E/Y61H); assay: IC50nM to purified HLA | DRB1 *1302
Sequence of purified HLA DRB1 *1302 (P01903 26-254 limits assumed, other chains not shown): as above
Method: as §1
Head of the field: IC50nM to purified HLA | DRB1 *1302
as §3
Where the first naming reader finds the target: head: IC50nM to purified HLA | DRB1 *1302

purified HLA DRB1 *1501 = purified HLA DRB1 *1501 (Homo sapiens, UniProt P01903+P01911); assay: IC50nM to purified HLA | DRB1 *1501
Method: as §1
(§13) Head of the field: IC50nM to purified HLA | DRB1 *1501
as §3
(§14) Where the first naming reader finds the target: head: IC50nM to purified HLA | DRB1 *1501

purified HLA DRB4 *0101 = purified HLA DRB4 *0101 (Homo sapiens, UniProt P01903+P13762, G164S); assay: IC50nM to purified HLA | DRB4 *0101
Sequence of purified HLA DRB4 *0101 (P01903 26-254 limits assumed): as the sequence (P01903 26-254 limits assumed, other chains not shown) above
Sequence of purified HLA DRB4 *0101 (P13762 whole entry G164S): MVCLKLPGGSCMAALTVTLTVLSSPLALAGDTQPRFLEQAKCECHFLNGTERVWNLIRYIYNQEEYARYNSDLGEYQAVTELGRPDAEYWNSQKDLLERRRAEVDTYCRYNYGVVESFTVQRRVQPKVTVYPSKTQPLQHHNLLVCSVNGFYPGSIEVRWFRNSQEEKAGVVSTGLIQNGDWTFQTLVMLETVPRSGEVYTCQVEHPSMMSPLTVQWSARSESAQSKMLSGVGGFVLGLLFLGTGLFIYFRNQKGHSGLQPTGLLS
Method: as §1
(§15) Head of the field: IC50nM to purified HLA | DRB4 *0101
as §3
(§16) Where the first naming reader finds the target: head: IC50nM to purified HLA | DRB4 *0101

purified HLA DRB5 *0101 = purified HLA DRB5 *0101 (Homo sapiens, UniProt P01903+Q30154); assay: IC50nM to purified HLA | DRB5 *0101
Method: as §1
Head of the field: IC50nM to purified HLA | DRB5 *0101
as §3
Where the first naming reader finds the target: head: IC50nM to purified HLA | DRB5 *0101

HLA DRB1 *0101 = HLA DRB1 *0101 (Homo sapiens, UniProt P01903+P01911, A100R/D57E/F55L/F60I/F76Y/I96L/L162R/M171V/P40L/Q125E/R42F/V115G/Y59C); assay: IC50nM to purified HLA | DRB1 *0101
Method: (§17) Table printed on a drawing sheet, FIG. 1 (contd.)
as §2
(§18) First copying reader's note: Continued from an earlier sheet of FIG. 1; decimal commas as printed, analog names encode substituted residues and positions, and some values are printed in italics or bold and some SEQ ID NOs underlined without a legend on this sheet.
as §4

HLA DRB1 *0301 = HLA DRB1 *0301 (Homo sapiens, UniProt P01903+P01911, A100K/A102G/A103R/A169T/F55Y/I96L/K41T/L162R/M171V/P40S/Q125H/Q178H/Q39Y/R42S/S66N/T106N/T262R/W38E/Y61H); assay: IC50nM to purified HLA | DRB1 *0301
Sequence of HLA DRB1 *0301 (P01903 26-254 limits assumed, other chains not shown): as the sequence (P01903 26-254 limits assumed, other chains not shown) above
Method: as §17, §5, §18, §6

HLA DRB1 *0701 = HLA DRB1 *0701 (Homo sapiens, UniProt P01903+P01911, A100R/A102G/A103Q/D57E/D86V/E43K/F76Y/K127E/L162R/M171V/P40G/Q125H/Q99D/R33Q/R42Y/R54Q/S133A/S66F/T210M/V115G/Y107V/Y59L/Y89S); assay: IC50nM to purified HLA | DRB1 *0701
Method: as §17, §9, §18, §10

HLA DRB1 *0802 = HLA DRB1 *0802 (Homo sapiens, UniProt P01903+P01911, A100R/A103L/A169T/F76Y/H45Y/I96F/K41T/L162R/M171V/P40S/Q125H/Q178H/Q39Y/Q99D/R218S/R42G/S66Y/V115G/W38E); assay: IC50nM to purified HLA | DRB1 *0802
Method: as §17, §11, §18, §12

HLA DRB4 *0101 = HLA DRB4 *0101 (Homo sapiens, UniProt P01903+P13762, G164S); assay: IC50nM to purified HLA | DRB4 *0101
Sequence of HLA DRB4 *0101 (P01903 26-254 limits assumed): as the sequence (P01903 26-254 limits assumed, other chains not shown) above
Sequence of HLA DRB4 *0101 (P13762 whole entry G164S): as the sequence (P13762 whole entry G164S) above
Method: as §17, §15, §18, §16

HLA DRB1 *1501 = HLA DRB1 *1501 (Homo sapiens, UniProt P01903+P01911); assay: IC50nM to purified HLA | DRB1 *1501
Method: as §17, §13, §18, §14

HLA DRB1 *0404 = HLA DRB1 *0404 (Homo sapiens, UniProt P01903+P01911, A100R/A169T/F76Y/I96L/K127E/L162R/M171V/N62H/P40V/Q125Y/R42H/S133A/S149N/S66Y/V209L/W38E); assay: IC50nM to purified HLA | DRB1 *0404
Method: as §17, §7, §18, §8

pIC50 (purified HLA DRB1 *0101) | pIC50 (purified HLA DRB1 *0401) | pIC50 (purified HLA DRB1 *0404) | pIC50 (purified HLA DRB1 *0405) | pIC50 (purified HLA DRB1 *0701) | pIC50 (purified HLA DRB1 *0901) | pIC50 (purified HLA DRB1 *1101) | pIC50 (purified HLA DRB1 *1302) | pIC50 (purified HLA DRB1 *1501) | pIC50 (HLA DRB1 *0101) | pIC50 (HLA DRB1 *0301) | pIC50 (HLA DRB1 *0701) | pIC50 (HLA DRB1 *0802) | pIC50 (HLA DRB4 *0101) | pIC50 (HLA DRB1 *1501) | pIC50 (HLA DRB1 *0404) | Molecule | pIC50 (purified HLA DRB1 *0301) | pIC50 (purified HLA DRB1 *0802) | pIC50 (purified HLA DRB4 *0101) | pIC50 (purified HLA DRB5 *0101)
8.24 | 8.62 | 8.14 | 7.51 | 7.13 | 7.51 | 7.57 | 5.55 | 7.49 |  |  |  |  |  |  |  | AAAFFVAAWTLKAAA [SEQ ID NO: 11] | 6.64 |  | 6.29 | 8.00
8.14 | 8.28 | 8.57 | 7.66 | 7.04 | 7.49 | 7.19 | 5.15 | 7.19 |  |  |  |  |  |  |  | AAAFFVAAWTLKADA [SEQ ID NO: 16] |  | 7.70 |  | 
 |  |  |  |  |  |  |  |  | 8.40 | 6.41 | 7.12 | 7.85 | 6.91 | 8.14 | 8.80 | AAAIFVAAWTLKAAA [SEQ ID NO: 68] |  |  |  | 

Molecule | pIC50 (purified HLA DRB1 *0101) | pIC50 (purified HLA DRB1 *0401) | pIC50 (purified HLA DRB1 *0404) | pIC50 (purified HLA DRB1 *0405) | pIC50 (purified HLA DRB1 *0701) | pIC50 (purified HLA DRB1 *0901) | pIC50 (purified HLA DRB1 *1101) | pIC50 (purified HLA DRB1 *1302) | pIC50 (purified HLA DRB1 *1501) | pIC50 (HLA DRB1 *0101) | pIC50 (HLA DRB1 *0301) | pIC50 (HLA DRB1 *0701) | pIC50 (HLA DRB1 *0802) | pIC50 (HLA DRB4 *0101) | pIC50 (HLA DRB1 *1501) | pIC50 (HLA DRB1 *0404) | pIC50 (purified HLA DRB1 *0301) | pIC50 (purified HLA DRB1 *0802) | pIC50 (purified HLA DRB4 *0101) | pIC50 (purified HLA DRB5 *0101)
CC(C)C[C@H](NC(=O)[C@@H](NC(=O)[C@H](Cc1c[nH]c2ccccc12)NC(=O)[C@H](C)NC(=O)[C@H](C)NC(=O)[C@@H](NC(=O)[C@H](Cc1ccccc1)NC(=O)[C@H](CCCCN)NC(=O)[C@H](C)N)C(C)C)[C@@H](C)O)C(=O)N[C@@H](CCCCN)C(=O)N[C@@H](C)C(=O)N[C@@H](C)C(=O)N[C@@H](C)C(=O)O [SEQ ID NO: 3] | 8.40 | 8.85 | 9.10 | 7.49 | 7.01 | 7.30 | 8.04 | 6.44 | 7.43 |  |  |  |  |  |  |  | 6.54 | 8.02 | 6.35 | 7.72

— US9789181B2, “PAN-DR binding polypeptides and uses thereof” (Epimmune Inc., priority 2009, dated 2017)
